Source: paper PMC13083723 (Patterns, 2026)

Test system: Vero-E6 cells
Test: cells
Format: cell-based
Conditions: Chlorocebus sabaeus, Vero C1008, 24 h, read-out: PL_Result

SMILES | activation at 10 µM [%]
Fc1ccc(Cl)cc1-c1nc(Nc2ccncc2)c2nccnc2n1 [SPE_K24566386] | -5.24
CCOC(=O)Nc1ccc2c(c1)N(C(=O)CN(CC)CC)c1ccccc1CC2 [SPE_K24570280] | 3.49
CC(C)(S)C(=O)N[C@@H](CS)C(=O)O [SPE_K24697665] | -4.72
Cc1[nH]nc(C(F)(F)F)c1Cc1sc2c(c1C(=O)N1C[C@](C)(O)CO1)c(=O)n(C)c(=O)n2C(C)C [SPE_K25210703] | -5.25
O=S(=O)(NCCCCCCc1ccccc1)c1cccc2c(Cl)cccc12 [SPE_K25875056] | -10.4
CC(C)(C)C(=O)OCC(=O)[C@H]1CC[C@H]2[C@@H]3CCC4=CC(=O)CC[C@]4(C)[C@H]3CC[C@]12C [SPE_K26024145] | -4.69
CCCCC/C=C\C=C/CCCCCCCCC(=O)O [SPE_K26222048] | -6.49
Cc1cc(OCc2nnc(SC3CCCC3)n2-c2cccnc2)ccc1-c1ccc(S(C)(=O)=O)cc1 [SPE_K26253904] | -0.282
COc1ccc(/C=C/C(=O)O)cc1 [SPE_K26273521] | -9.12
CCCCCCCCCCCCCCCc1cccc(OCC(=O)NCCO)c1 [SPE_K26358347] | -8.8
CC(=O)NCCNc1cc(Cl)nn2c(-c3cccc(S(=O)(=O)N(C)C)c3)c(C)nc12 [SPE_K26726854] | 0.695
O=C(O)Cc1ccc(CCNS(=O)(=O)c2ccc(Cl)cc2)cc1 [SPE_K26813177] | -0.423
O=[N+]([O-])c1ncc[nH]1 [SPE_K26824830] | -1.75
O=c1c2ccccc2oc2ccccc12 [SPE_K27135764] | 4.69
O=C(Cn1c(=O)sc2ccc(Cl)cc21)N1CCN(CCO)CC1 [SPE_K27293958] | 2.56
O=C(O)c1cc(O)c2c(c1)C(=O)c1cccc(O)c1C2=O [SPE_K27335680] | -8.5
Cc1cc(C)c2nc(-c3ccccn3)cc(C(=O)Nc3ccc(S(=O)(=O)Nc4onc(C)c4C)cc3)c2c1 [SPE_K27539181] | 7.09
COc1ccc(Oc2c(Cl)cnn(C3c4ccccc4-c4ccccc43)c2=O)cc1 [SPE_K27732927] | -5.19
C[C@@H](N)[C@@H](O)c1ccccc1 [SPE_K27853494] | -4.21
C=C1C(=O)O[C@@H]2[C@H]3O[C@]3(C)CC/C=C(\C)CC[C@@H]12 [SPE_K28120222] | -7.03
CC[n+]1c(-c2ccccc2)c2cc(N)ccc2c2ccc(N)cc21 [SPE_K28354016] | 9.76

SMILES | activation at 10 µM [%]
O=C(N[C@H]1CN2CCC1CC2)c1ccc(Cl)cc1 [SPE_K28863208] | -0.0405
CN1CCC(=C2c3ccccc3CC(=O)c3sccc32)CC1 [SPE_K28936863] | -4.71
CC(=O)OCC(=O)[C@@]1(O)CC[C@H]2[C@@H]3CCC4=CC(=O)C=C[C@]4(C)[C@@]3(F)[C@@H](O)C[C@@]21C [SPE_K29173907] | -3.84
O=S(=O)(Cc1ccccc1)Nc1ccc(-c2ccc3c(cnn3-c3ccc(F)cc3)c2)c(C(F)(F)F)c1 [SPE_K29328421] | -4.77
CC(=O)Nc1nc(C)c(-c2ccc(Cl)c(S(=O)(=O)NCCO)c2)s1 [SPE_K29395450] | -9.8
C=CCN1C[C@H](C)N([C@H](c2ccc(C(=O)N(CC)CC)cc2)c2cccc(OC)c2)C[C@H]1C [SPE_K29546239] | 1.37
COc1cc(C(=S)N2CCOCC2)cc(OC)c1OC [SPE_K29570907] | -7.35
CN1CCN(CCc2ccc(Cl)c(Cl)c2)CC1 [SPE_K29668683] | 11.7
O=C(Cc1ccc(-c2ccc(OCCN3CCOCC3)cc2)cn1)NCc1ccccc1 [SPE_K29968218] | -4.21
Cc1cccc(Nc2ccncc2S(=O)(=O)NC(=O)NC(C)C)c1 [SPE_K30480208] | -3.18
CN1CCC[C@@H]1Cc1c[nH]c2ccc(CCS(=O)(=O)c3ccccc3)cc12 [SPE_K30652337] | 1.82
O=C(O)C(=O)c1cn(Cc2ccccc2)c2ccc(-c3ccc(OC(F)(F)F)cc3)cc12 [SPE_K30882994] | 1.29
N#Cc1ccc(N2CCN(C(=O)COc3ccc4[nH]cc(CCN)c4c3)CC2)cc1 [SPE_K31092604] | 1.38
Nn1cnc2cc3ccccc3cc2c1=O [SPE_K31329721] | -8.33
Cc1c(-c2ccnn2C)cc(C(=O)NCc2ccc(S(C)(=O)=O)cn2)c(=O)n1-c1cccc(C(F)(F)F)c1 [SPE_K31476763] | -9.37
COc1nc(C)cnc1NS(=O)(=O)c1cccnc1-c1ccc(-c2nnco2)cc1 [SPE_K31553034] | -4.16
Fc1ccc(CN2CCC(Nc3ccc(C(F)(F)F)nn3)CC2)cc1F [SPE_K31802667] | 4.7
O=C1N=C2NN=CC2C(=O)N1 (stereo not shown) [SPE_K31841515] | 2.22
N#Cc1c(Oc2ccc(F)c(NC(=O)Cc3cccc(C(F)(F)F)c3)c2)ccc2nc(NC(=O)C3CC3)sc12 [SPE_K31866293] | 1.45
CCN(CCCOc1ccc2c(Nc3cc(CC(=O)Nc4cccc(F)c4)[nH]n3)ncnc2c1)CCOP(=O)(O)O [SPE_K31928526] | -11.2
CCCCCCCCCCCCCCCCCCCCCC(=O)Nc1ccn([C@@H]2O[C@H](CO)[C@@H](O)[C@@H]2O)c(=O)n1 [SPE_K32007074] | -0.592

SMILES | activation at 10 µM [%]
Nc1ccc(S(=O)(=O)Nc2ccc(Cl)nn2)cc1 [SPE_K32021043] | 5.81
Cc1ccc(S(=O)(=O)NC(=O)NN2CCCCCC2)cc1 [SPE_K32164935] | -1.35
Fc1ccc(C(OCCN2CCN(CCCc3ccccc3)CC2)c2ccc(F)cc2)cc1 [SPE_K32501161] | -3.21
CCN(CC)C(=S)SSC(=S)N(CC)CC [SPE_K32744045] | 5.11
O=C(O)CCNc1cc(N2CCc3ccccc3CC2)nc(-c2ccccn2)n1 [SPE_K32847255] | -5.77
CNCCc1ccc(O)c(O)c1 [SPE_K33151569] | -7.82
CC(=O)Nc1ccc(CC(=O)O)cc1 [SPE_K33483813] | 2.74
CCOC(=O)c1ncc2[nH]c3ccc(OCc4ccccc4)cc3c2c1COC [SPE_K33882852] | -9.36
Cc1coc2c1C(=O)C(=O)c1c-2ccc2c(C)cccc12 [SPE_K34073885] | 1.44
CC(=O)Nc1nc2c(Oc3cc(-c4ccc(C(F)(F)F)cc4)ncn3)cccc2s1 [SPE_K34185671] | -12.4
CC(C)(C)NC[C@H](O)c1ccc(O)c(CO)c1 [SPE_K34469523] | -6.61
CC[C@@H](CO)NC(=O)[C@@H]1C=C2c3cccc4[nH]cc(c34)C[C@H]2N(C)C1 [SPE_K34685430] | -5.04
Cc1ccc(C(=O)Nc2ccc(CN3CCN(C)CC3)c(C(F)(F)F)c2)cc1C#Cc1cnc2[nH]ncc2c1 [SPE_K35329391] | -3.83
Cc1c(Cl)cccc1S(=O)(=O)Nc1nc(NCCc2ccccc2)nc2c1CN(Cc1ccccc1)CC2 [SPE_K35772771] | -25
C[C@@H]1CN(CC(=O)Nc2ccc3c(c2)Cc2cccc(-c4cc(=O)cc(N5CCOCC5)o4)c2S3)C[C@H](C)O1 [SPE_K36016295] | 15.1
CN(C)C(=N)NCCC[C@H](N)C(=O)O [SPE_K36269323] | -6.39
Cc1ccc2nc(N)nc(O)c2c1Sc1ccncc1 [SPE_K36636143] | 2.73
C[C@H](O)[C@H](O)[C@H]1CNc2[nH]c(N)nc(=O)c2N1 [SPE_K36859431] | -1.35
CCCCCCCCCCCCCCCCO [SPE_K37203094] | 1.52
CC(=O)c1ccc2c(c1)N(CCCN(C)C)c1ccccc1S2 [SPE_K37814297] | 27.3
O=C(Oc1cc(S(=O)(=O)c2ccccc2)ccc1[N+](=O)[O-])c1ccc(Cl)cc1 [SPE_K37933329] | -5.26

SMILES | activation at 10 µM [%]
C[C@@H]1C[C@H]2[C@@H]3C[C@H](F)C4=CC(=O)C=C[C@]4(C)[C@@]3(Cl)[C@@H](O)C[C@]2(C)[C@H]1C(=O)COC(=O)C(C)(C)C [SPE_K38003476] | -1.81
CCCCNc1cc(C(=O)O)cc(S(N)(=O)=O)c1Oc1ccccc1 [SPE_K38197229] | -2.26
CNc1ncc2cc(-c3cc(NC(=O)NCCC(C)(C)C)c(F)cc3C)c(C)nc2n1 [SPE_K38385169] | -2.79
COc1cc(O)c(C(=O)c2ccccc2)cc1S(=O)(=O)O [SPE_K38602774] | -11.2
Oc1cccc(Nc2ccc(Nc3cccc(O)c3)nn2)c1 [SPE_K38687824] | -9.16
COc1ccc(-n2c(C)c([N+](=O)[O-])c3ccc(O)cc32)cc1 [SPE_K39166528] | -10.4
CC(C)Oc1ccc(-c2cnc3c(-c4ccnc5ccccc45)cnn3c2)cc1 [SPE_K39381259] | -4.31
CCCCc1nn(-c2ccccc2C(F)(F)F)c(=O)n1Cc1ccc(-c2ccccc2S(=O)(=O)NC(=O)c2sccc2C)cc1 [SPE_K39733634] | -1.37
N#Cc1cccc(-c2nc(-c3cccnc3)no2)c1 [SPE_K40176866] | -7.54
CC[C@]12CCCN3CCc4c(n(c5ccccc45)C(=O)C1)[C@@H]32 [SPE_K40227168] | -8.29
Cc1nccc2[nH]c(=O)ccc12 [SPE_K40715924] | -2.15
C=CCN1CC[C@]23c4c5ccc(O)c4O[C@H]2[C@@H](OCCOCCOCCOCCOCCOCCOCCOC)CC[C@@]3(O)[C@H]1C5 [SPE_K41458421] | -3.45
CC(C)[C@H](CO)Nc1nc(Nc2ccc(C(=O)O)c(Cl)c2)c2ncn(C(C)C)c2n1 [SPE_K41564320] | 1.13
COc1cc2ncnc(Nc3cccc(Cl)c3F)c2cc1OC(=O)N1CCN(C)C[C@H]1C [SPE_K41626799] | -12.8
Oc1cc(Cl)ccc1Oc1ccc(Cl)cc1Cl [SPE_K41731458] | 0.158
O=C(O)C1=CCCN(CCON=C(c2ccccc2)c2ccccc2)C1 [SPE_K42221274] | 0.196
CCOc1cccc(NC(=O)c2ccc(N3CCCC3)c(C(F)(F)F)c2)c1 [SPE_K42536037] | -13.1
COc1cccc(-c2cc(NCc3ccc4c(c3)OCO4)nc(N)n2)c1 [SPE_K42624714] | -1.5
CC(=O)N(OCc1ccccc1)[C@@H]1c2cc(C#N)ccc2OC(C)(C)[C@H]1O [SPE_K42679050] | 0.738
